Source: patent US20080208071A1, “Measurement of Gastric Acid Secretion” (THE LEEDS TEACHING HOSPITALS NHS TRUST, priority 2005, published 2008)

What was measured:
gastric acid secretion [1] = assay: 13C calcium carbonate breath test, Example 2 (initial 2 g, then 500 mg every 5 minutes over 3 hours); conditions: human volunteer; oral 2 g then 500 mg calcium carbonate (10 atom % 13C) every 5 minutes over 3 hours; two experiments; FIG. 4
gastric acid secretion [2] = assay: 13C calcium carbonate breath test, Example 1 (250 mg every 15 minutes over 4 hours); conditions: human volunteer; oral 250 mg calcium carbonate (10 atom % 13C) every 15 minutes over 4 hours; two experiments; FIG. 1
Protocol: At 10 minute intervals, samples of exhaled (expired) air were obtained from the subject by breathing into a suitable collection vessel such as a test tube. The expired air was subjected to mass spectrometry to measure the ratio of ^13C to ^12C in the exhaled carbon dioxide.
In a second experiment the subject was treated with omeprazole 20 mg daily for two weeks and the experiment repeated twice under otherwise identical conditions.
The subject then did two further experiments again under otherwise identical conditions but now including a daily dosage of 40 mg of omeprazole.

With `O=C([O-])[O-].[Ca+2]` [^13C labelled calcium carbonate, calcium carbonate] the “time at which the rise in 13C in exhaled carbon dioxide begins to plateau” value (gastric acid secretion [1]) was “about 120 minutes” and the “time at which the rise in 13C in exhaled carbon dioxide begins to plateau” value (gastric acid secretion [2]) was “about 120 minutes”.
